We go through 59 compounds from patent US20100081679A1, “DIAMINOPYRIMIDINES AS FUNGICIDES” (Bayer CropScience AG, priority 2007, published 2010).

SMILES strings stand for the structures. Marks after values point to notes of the source that are not given here.

A short description of the data set: logP determination via retention times, calibrated with unbranched alkan-2-ones. The conditions noted are these: for chromatographic logP: pH 2.3, read-out: logP (pH2.3). It is filed as physicochemical.
Where [1] appears, read: HPLC on reversed-phase C18, method *: 40° C., 0.1% aqueous formic acid and acetonitrile, linear gradient 10% to 95% acetonitrile.
Where [2] appears, read: method *: HPLC reversed-phase C 18, temperature 40° C., mobile phase 0.1% aqueous formic acid and acetonitrile, linear gradient 10% to 95% acetonitrile.
[3] abbreviates: HPLC reversed-phase C 18, EEC Directive 79/831 Annex V.A8, method *: 40° C., 0.1% aqueous formic acid and acetonitrile, linear gradient 10% to 95% acetonitrile.
The mark [4] stands for this setting: HPLC on reversed-phase C18, method *: 40° C., mobile phase 0.1% aqueous formic acid and acetonitrile, linear gradient 10% to 95% acetonitrile.
The mark [5] stands for this setting: method **: HPLC reversed-phase C 18, 43° C., 0.1% aqueous phosphoric acid and acetonitrile, linear gradient 10% to 95% acetonitrile.
[6] abbreviates: HPLC on reversed-phase C 18, EEC Directive 79/831 Annex V.A8, method *: 40° C., 0.1% aqueous formic acid and acetonitrile, linear gradient 10% to 95% acetonitrile.
[7] abbreviates: method *: HPLC reversed-phase C18, 40° C., 0.1% aqueous formic acid and acetonitrile, linear gradient 10% to 95% acetonitrile.
The mark [8] stands for this setting: HPLC on reversed-phase C 18, method **: 43° C., 0.1% aqueous phosphoric acid and acetonitrile, linear gradient 10% to 95% acetonitrile.
The mark [9] stands for this setting: HPLC on reversed-phase C18 column (EEC Directive 79/831 Annex V.A8), method *: 40° C., 0.1% aqueous formic acid and acetonitrile, linear gradient 10% to 95% acetonitrile.

For `O=C1C=CC(=O)N1c1ccc(Nc2ncc(Cl)c(NC3CC3)n2)cc1` [compound 156], the logP under setting [1] was 1.58*. `Fc1cccc(Nc2ncc(Cl)c(NC3CC3)n2)c1` [compound 620]: the logP under setting [2] is listed as 3.15*. `N#Cc1cnc(Nc2ccc(N3CCCC3=O)cc2)nc1NC1CC1` [compound 157]: the logP under setting [1] is listed as 1.89*. In the case of `CSC(C)c1cccc(Nc2ncc(Br)c(NC3CC3)n2)c1` (stereo not drawn) [compound 811], under setting [3], the logP was 2.63*. `CCCc1ccccc1Nc1ncc(Cl)c(NC2CC2)n1` [compound 912]: the logP under setting [1] was 2.01*. In the case of `O=C1CCCN1c1cccc(Nc2ncc(C(F)F)c(NCC3CC3)n2)c1` [compound 774], the logP under setting [1] was 1.48*. As to `Clc1cnc(Nc2ccc(-c3cscn3)cc2)nc1NC1CC1` [compound 286], under setting [4], the logP is listed as 1.9*.

For `Fc1cnc(Nc2ccccc2)nc1NC1CC1` [compound 42], the logP under setting [5] is 1.45**.

As for `CCN(C(=O)OC)c1ccc(Nc2ncc(Br)c(NC3CC3)n2)cc1` [compound 303], under setting [4], the logP was 2.06*. Take `COCc1cccc(Nc2ncc(Cl)c(NCC3CC3)n2)c1` [compound 709]: under setting [1], the logP was 1.82*.

Consider `CC[S+]([O-])c1cccc(Nc2ncc(Br)c(NC3CC3)n2)c1` (racemic) [compound 958], for which the logP under setting [1] is on record as 1.59*. Regarding `CCN(C(C)=O)c1ccc(Nc2ncc(Br)c(NCC3CC3)n2)cc1` [compound 480], the logP under setting [6] is given as 1.83*. `OC(c1cccc(Nc2ncc(Cl)c(NC3CC3)n2)c1)C(F)(F)F` (racemic) [compound 961]: under setting [1], the logP is given as 1.79*.

Turning to `COc1cc(Nc2ncc(Cl)c(NCC3CC3)n2)cc(OC)c1OC` [Example 12], the logP under setting [5] is on record as 1.78**. For the compound `CO/N=C(\C)c1cccc(Nc2ncc(Cl)c(NC3CC3)n2)c1` [compound 732], the logP under setting [1] was 2.37*. For `CSc1cccc(Nc2ncc(F)c(NC3CC3)n2)c1` [compound 586], the logP under setting [2] is listed as 1.73*. `COc1ccc(Nc2ncc(Br)c(NC3CC3)n2)cc1` [compound 344]: the logP under setting [4] is 1.63*. With `CN1CC(=O)N(c2ccc(Nc3ncc(Cl)c(NC4CC4)n3)cc2)C1=O` [Example 107], under setting [1], the logP is 1.29*. Regarding `CSc1ccc(Nc2ncc(Cl)c(NC3CC3)n2)cc1Cl` [compound 377], the logP under setting [7] is 2.84*. For `CC(=O)Nc1cc(Nc2ncc(C(F)(F)F)c(NC3CC3)n2)ccc1C` [compound 662], the logP runs as follows: under setting [8], 1.82**; under setting [1], 1.71*;. With `Clc1cnc(Nc2ccccc2)nc1NC1CC1` [Example 70], under setting [7], the logP is given as 1.28*. Turning to `Fc1ccc(Nc2ncc(Cl)c(NC3CC3)n2)cc1OC(F)F` [compound 1053], the logP (method *: HPLC, reversed-phase C 18, 40° C., mobile phase 0.1% aqueous formic acid and acetonitrile, linear gradient from 10% to 95% acetonitrile) is on record as 2.62*. As for `COCc1cccc(Nc2ncc(Cl)c(NC3CC3)n2)c1` [compound 268], the logP under setting [9] is 1.67*.

Consider `FC(F)(F)Oc1cccc(Nc2ncc(Cl)c(NC3CC3)n2)c1` [compound 300], for which, under setting [4], the logP is reported as 3.18*. On the same count and under the same terms, with `CCOC(=O)C1(Nc2nc(Nc3cccc(Cl)c3)ncc2Cl)CC1` [compound 316] the figure was 3.13*. Consider `COc1cccc(Nc2ncc(Br)c(NC3CC3)n2)c1` [compound 343], for which the logP under setting [4] is 1.9*.

Take `FC(F)Oc1ccccc1Nc1ncc(Cl)c(NC2CC2)n1` [compound 943]: the logP under setting [1] is reported as 2.36*.

As to `COCc1cccc(Nc2ncc(Cl)c(N(C)CC3CC3)n2)c1` [compound 965], the logP under setting [8] is on record as 2.71**. As to `N#CCc1cccc(Nc2ncc(Br)c(NC3CC3)n2)c1` [compound 794], the logP under setting [3] is listed as 1.75*.

Regarding `Clc1cnc(Nc2cccc(CBr)c2)nc1NC1CC1` [compound 1023], the logP (method **: HPLC, reversed-phase C 18, 43° C., mobile phase 0.1% aqueous phosphoric acid and acetonitrile, linear gradient from 10% to 95% acetonitrile) was 2.31**. For the compound `CCOC(=O)c1cccc(Nc2ncc(Cl)c(NC3CC3)n2)c1` [compound 292], under setting [4], the logP is recorded as 2.26*. With `FC(F)(F)Sc1ccc(Nc2ncc(Cl)c(NC3CC3)n2)cc1` [compound 376], the logP under setting [7] is listed as 3.72*.

For `CS(=O)(=O)c1ccc(Nc2ncc(C(F)(F)F)c(NCC3CC3)n2)cc1` [compound 200], the logP under setting [9] was 2.63*. For the compound `Fc1cnc(Cl)nc1NC1CC1` [2-chloro-N-cyclopropyl-5-fluoropyrimidine-4-amine], the chromatographic logP stood at 1.42. Regarding `COc1cc(Nc2ncc(Cl)c(NC3CC3)n2)cc(OC)c1` [Example 3], the logP under setting [7] is 1.91*. Take `COC(=S)Nc1ccc(Nc2ncc(Cl)c(NC3CC3)n2)cc1` [compound 365]: under setting [7], the logP was 1.8*.

Turning to `Cc1ccc(Nc2ncc(Cl)c(NC3CC3)n2)cc1C` [compound 939], under setting [1], the logP is 2.01*. As to `Clc1ccc(Nc2ncc(Br)c(NCC3CC3)n2)cc1` [compound 474], under setting [6], the logP is 2.67*. Still for that read-out and setting: the result for `CC(C)(C)OC(=O)Nc1cccc(Nc2ncc(Cl)c(NCC3CC3)n2)c1` [compound 524] reads 2.33*. Turning to `O=S(=O)(c1ccc(Nc2ncc(Cl)c(NC3CC3)n2)cc1)N1CCCC1` [compound 307], the logP (HPLC on reversed-phase C18, method **: 43° C., mobile phase 0.1% aqueous phosphoric acid and acetonitrile, linear gradient 10% to 95% acetonitrile) is listed as 2.52**. For the compound `O=C1CCCCN1c1cccc(Nc2ncc(F)c(NC3CC3)n2)c1` [compound 804], under setting [3], the logP is given as 1.16*.

As for `Cc1cnc(Cl)nc1NC1CC1` [2-chloro-N-cyclopropyl-5-methylpyrimidine-4-amine], the chromatographic logP was determined as 1.28. Take `Cc1cc(Nc2ncc(Cl)c(NC3CC3)n2)ccc1O` [compound 180]: the logP under setting [9] is 1.09*. In the case of `O=C(c1ccc(Nc2ncc(Br)c(NCC3CC3)n2)cc1)N1CCOCC1` [compound 484], the logP under setting [6] was 1.64*. On to `CN(CC1CC1)c1nc(Nc2ccccc2)ncc1Cl` [compound 963], for which the logP under setting [8] is on record as 2.72**. On to `COc1cccc(Nc2ncc(Cl)c(NC3CC3)n2)c1` [compound 283], for which the logP under setting [4] is reported as 1.8*. Take `CC(=O)Cc1cccc(Nc2ncc(C(F)(F)F)c(NC3CC3)n2)c1` [compound 783]: under setting [3], the logP is reported as 2.42*.

For the compound `COC(=O)c1ccc(Nc2ncc(Cl)c(NC3CC3)n2)cc1` [Example 37], the logP under setting [7] is listed as 2.23*. For the compound `COc1cccc(Nc2ncc(I)c(NC3CC3)n2)c1` [compound 855], under setting [3], the logP was 1.97*.

For `CC(=O)Cc1ccc(Nc2ncc(Cl)c(NC3CC3)n2)cc1` [compound 851], under setting [3], the logP is listed as 1.48*. Take `CN(c1nc(Nc2ccccc2)ncc1Br)C1CC1` [compound 928]: the logP under setting [8] was 1.7**.

With `CCOC(=O)Nc1ccc(Nc2ncc(Cl)c(NCC3CC3)n2)cc1O` [compound 542], under setting [6], the logP is recorded as 1.68*. For the compound `O=C1CCCN1c1cccc(Nc2ncc(Cl)c(NCC3CC3)n2)c1` [compound 520], the logP under setting [6] is listed as 1.56*.

As for `CSc1ccc(Nc2ncc(Cl)c(NCC3CC3)n2)cc1` [compound 674], the logP under setting [1] is reported as 2.18*. For `O=C(c1ccc(Nc2ncc(C(F)(F)F)c(NC3CC3)n2)cc1)N1CCCCC1` [compound 725], the logP under setting [1] is recorded as 2.86*. Still for that read-out and setting: with `Brc1ccc(Nc2ncc(Br)c(NC3CC3)n2)cc1` [compound 743] the figure was 2.7*; with `CCOC(=O)Nc1ccc(Nc2ncc(Cl)c(NC3CC3)n2)cc1` [compound 977], 1.63*. Same read-out and setting: the result for `FC(F)(F)c1cc(Nc2ncc(Cl)c(NC3CC3)n2)cc(C(F)(F)F)c1` [compound 903] reads 4.56*. Consider `CN(C)S(=O)(=O)c1ccc(Nc2ncc(Cl)c(NC3CC3)n2)cc1` [Example 6], for which, under setting [5], the logP is recorded as 2.26**.
